Data published in patent publication US5436254A, “Carbostyril derivatives” (Otsuka Pharmaceutical Company, Ltd., priority 1989, dated 1995).
Where two headings read alike, the source gives them in different places.

Molecular target: V1 receptor (Rattus norvegicus, UniProt P30560)
Test: biochemical
Type: binding
[1] = [H]3-Arg-vasopressin 2×10^-10 M, rat liver plasma membrane, 37° C., 10 minutes, pH 8.0, read-out: IC50

V1 receptor, sequence (P30560 whole entry): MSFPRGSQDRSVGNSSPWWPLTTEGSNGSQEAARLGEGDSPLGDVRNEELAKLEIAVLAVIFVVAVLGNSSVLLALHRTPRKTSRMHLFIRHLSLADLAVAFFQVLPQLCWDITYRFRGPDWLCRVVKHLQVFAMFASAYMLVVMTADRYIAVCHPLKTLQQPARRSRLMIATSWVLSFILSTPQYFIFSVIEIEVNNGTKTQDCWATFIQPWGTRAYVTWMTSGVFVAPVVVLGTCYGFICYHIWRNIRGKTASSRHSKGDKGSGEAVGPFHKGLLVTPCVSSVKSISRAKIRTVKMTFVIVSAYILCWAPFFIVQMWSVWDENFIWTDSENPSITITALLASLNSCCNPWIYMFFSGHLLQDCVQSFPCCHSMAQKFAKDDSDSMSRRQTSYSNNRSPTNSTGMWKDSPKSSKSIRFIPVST

Compound	IC50 [nM]	other results
COc1cc(SC)ccc1C(=O)N1CCC(N2C(=O)CCc3ccc(F)cc32)CC1 [Example 80, 7-Fluoro-1-[1-(2-methoxy-4-methylthiobenzoyl)-4-piperidinyl]-3,4-dihydrocarbostyril]	80	–
COc1ccc(C(=O)N2CCC(N3C(=O)CCc4ccc(C)cc43)CC2)c(OC)c1 [Example 81, 7-Methyl-1-[1-(2,4-dimethoxybenzoyl)-4-piperidinyl]-3,4-dihydrocarbostyril]	210	–
CCOc1ccc(C(=O)N2CCC(n3c(=O)ccc4ccccc43)CC2)c(OC)c1 [Example 82, 1-[1-(2-Methoxy-4-ethoxybenzoyl)-4-piperidinyl]carbostyril]	–	IC50 (read-out: IC50): 330 nM
O=C1CCc2ccccc2N1C1CCN(C(=O)C23CC4CC(CC(C4)C2)C3)CC1 [Example 83, 1-(1-Tricyclo[3.3.1.1^3,7]decanylcarbonyl-4-piperidinyl)-3,4-dihydrocarbostyril]	500	–
COc1cc(SC)ccc1C(=O)N1CCC(N2C(=O)CCc3ccccc32)C1 (stereo not shown) [Example 84, 1-[1-(2-Methoxy-4-methylthiobenzoyl)-3-pyrrolidinyl]-3,4-dihydrocarbostyril]	–	IC50 [1]: 7100 nM
COc1ccc(N(Cc2ccccc2)C(=O)c2ccc(N3C(=O)CCc4ccccc43)cc2)cc1 [Example 85]	–	IC50 [1]: 3000 nM
COc1ccc(N2CCN(CCCOc3ccc(C(=O)N4CCC(N5C(=O)CCc6ccccc65)CC4)cc3)CC2)cc1 [Example 86, 1-{1-[4-(3-[4-(4-Methoxyphenyl)-1-piperazinyl]propoxy)benzoyl]-4-piperidinyl)-3,4-dihydrocarbostyril]	570	–
C=CCOCCCOc1ccc(C(=O)N2CCC(N3C(=O)CCc4ccccc43)CC2)cc1 [Example 87, 1-(1-[4-(3-Allyloxypropoxy)benzoyl]-4-piperidinyl}-3,4-dihydrocarbostyril]	530	–
NC(=O)CCCNc1ccc(C(=O)N2CCC(N3C(=O)CCc4ccccc43)CC2)cc1 [Example 88, 1-{1-[4-(3-Carbamoylpropylamino)benzoyl]-4-piperidinyl)-3,4-dihydrocarbostyril]	1000	–
CCSc1nccn1-c1ccc(C(=O)N2CCC(N3C(=O)CCc4ccccc43)CC2)cc1 [Example 89, 1-{1-[4-(2-Ethylthioimidazol-1-yl)benzoyl]-4-piperidinyl)-3,4-dihydrocarbostyril]	1600	–
C=CCN(C)c1ccc(C(=O)N2CCC(N3C(=O)CCc4ccccc43)CC2)cc1 [Example 90, 1-{1-[4-(N-Allyl-N-methylamino)benzoyl]-4-piperidinyl)-3,4-dihydrocarbostyril]	1100	–
O=C(c1ccc(N2CCCC2)cc1)N1CCC(N2C(=O)CCc3ccccc32)CC1 [Example 91, 1-{1-[4-(1-Pyrrolidinyl)benzoyl]-4-piperidinyl}-3,4-dihydrocarbostyril]	720	–
CN(CCCOc1ccc(C(=O)N2CCC(N3C(=O)CCc4ccccc43)CC2)cc1)C(=O)c1ccccc1 [Example 92, 1-[1-{4-[3-(N-Methyl-N-benzoylamino)propoxy]benzoyl}-4-piperidinyl)-3,4-dihydrocarbostyril]	1200	–
O=C(c1ccc(OCCCN2CCN(c3ccccc3)CC2)cc1)N1CCC(N2C(=O)CCc3ccccc32)CC1 [Example 93, 1-[1-{4-[3-(4-Phenyl-1-piperazinyl)propoxy]benzoyl)-4-piperidinyl]-3,4-dihydrocarbostyril]	640	–
O=C(OCCCOc1ccc(C(=O)N2CCC(N3C(=O)CCc4ccccc43)CC2)cc1)c1ccccc1 [Example 94, 1-{1-[4-(3-Benzoyloxypropoxy)benzoyl]-4-piperidinyl}-3,4-dihydrocarbostyril]	630	–
CCSCCCOc1ccc(C(=O)N2CCC(N3C(=O)CCc4ccccc43)CC2)cc1 [Example 95, 1-{1-[4-(3-Ethylthiopropoxy)benzoyl]-4-piperidinyl}-3,4-dihydrocarbostyril]	960	–
O=C(c1ccc(OCc2ccccc2)cc1)N1CCC(N2C(=O)CCc3ccccc32)CC1 [Example 97, 1-[1-(4-Benzyloxybenzoyl)-4-piperidinyl]-3,4-dihydrocarbostyril]	1100	–
O=C(c1ccc(OC2C=CCCC2)cc1)N1CCC(N2C(=O)CCc3ccccc32)CC1 (stereo not shown) [Example 98, 1-{1-[4-(2-Cyclohexenyloxy)benzoyl]-4-piperidinyl}-3,4-dihydrocarbostyril]	770	–
O=C(c1ccc(OC2CCCCC2)cc1)N1CCC(N2C(=O)CCc3ccccc32)CC1 [Example 99, 1-[1-(4-Cyclohexyloxybenzoyl)-4-piperidinyl]3,4-dihydrocarbostyril]	960	–
CS(=O)(=O)Oc1ccc(C(=O)N2CCC(N3C(=O)CCc4ccccc43)CC2)cc1 [Example 100, 1-[1-(4-Methylsulfonyloxybenzoyl)-4-piperidinyl]-3,4-dihydrocarbostyril]	900	–
O=C(c1ccc(OCC2CO2)cc1)N1CCC(N2C(=O)CCc3ccccc32)CC1 (stereo not shown) [Example 101, 1-[1-(4-Glycidoxybenzoyl)-4-piperidinyl]-3,4-dihydrocarbostyril]	1600	–
CCOC(=O)CN(C)c1cc(OC)ccc1C(=O)N1CCC(N2C(=O)CCc3ccccc32)CC1 [Example 102, 1-{1-[4-Methoxy-2-(N-methyl-N-ethoxycarbonylmethylamino)benzoyl]-4-piperidinyl}-3,4-dihydrocarbostyril]	1100	–

Compound	IC50 [nM]	other results
COc1ccc(C(=O)N2CCC(N3C(=O)CCc4ccccc43)CC2)c(NC(=O)OCc2ccccc2)c1 [Example 103, 1-[1-(4-Methoxy-2-benzyloxycarbonylaminobenzoyl)-4-piperidinyl]-3,4-dihydrocarbostyril]	700	–
COc1ccc(C(=O)N2CCC(N3C(=O)CCc4ccccc43)CC2)c(NC(C)=O)c1 [Example 104, 1-[1-(4-Methoxy-2-acetylaminobenzoyl)-4-piperidinyl]-3,4-dihydrocarbostyril]	1000	–
CNC(=O)CNc1cc(OC)ccc1C(=O)N1CCC(N2C(=O)CCc3ccccc32)CC1 [Example 105, 1-[1-(4-Methoxy-2-methylaminocarbonylmethylamino)-4-piperidinyl]-3,4-dihydrocarbostyril]	1200	–
O=C(c1ccc(C(F)(F)F)cc1)N1CCC(N2C(=O)CCc3ccccc32)CC1 [Example 106, 1-[1-(4-Trifluoromethylbenzoyl)-4-piperidinyl]-3,4-dihydrocarbostyril]	700	–
CC(=O)c1ccc(C(=O)N2CCC(N3C(=O)CCc4ccccc43)CC2)cc1 [Example 107, 1-[1-(4-Acetylbenzoyl)-4-piperidinyl]-3,4-dihydrocarbostyril]	750	–
O=C(c1ccc(C=NO)cc1)N1CCC(N2C(=O)CCc3ccccc32)CC1 [Example 108, 1-[1-(4-Hydroxyiminomethylbenzoyl)-4-piperidinyl]-3,4-dihydrocarbostyril]	1400	–
COCc1ccc(C(=O)N2CCC(N3C(=O)CCc4ccccc43)CC2)cc1 [Example 109, 1-[1-(4-Methoxymethylbenzoyl)-4-piperidinyl]-3,4-dihydrocarbostyril]	750	–
C[Si](C)(C)c1ccc(C(=O)N2CCC(N3C(=O)CCc4ccccc43)CC2)cc1 [Example 110, 1-[1-(4-Trimethylsilylbenzoyl)-4-piperidinyl]-3,4-dihydrocarbostyril]	1300	–
C=CCc1ccc(C(=O)N2CCC(N3C(=O)CCc4ccccc43)CC2)cc1 [Example 111, 1-[1-(4-Allylbenzoyl)-4-piperidinyl]-3,4-dihydrocarbostyril]	730	–
O=C(c1ccc(C2CCCCC2)cc1)N1CCC(N2C(=O)CCc3ccccc32)CC1 [Example 112, 1-[1-(4-Cyclohexylbenzoyl)-4-piperidinyl]-3,4-dihydrocarbostyril]	970	–
O=C(c1ccc2c(c1)OCO2)N1CCC(N2C(=O)CCc3ccccc32)CC1 [Example 113, 1-[1-(3,4-Methylenedioxybenzoyl)-4-piperidinyl]-3,4-dihydrocarbostyril]	980	–
CC(C)=CCCC(C)=CC(=O)N1CCC(N2C(=O)CCc3ccccc32)CC1 [Example 114, 1-[1-(2,6-Dimethyl-1,5-heptadiene-1-carbonyl)-4-piperidinyl]-3,4-dihydrocarbostyril]	1500	–
O=C(CC12CC3CC(CC(C3)C1)C2)N1CCC(N2C(=O)CCc3ccccc32)CC1 [Example 115]	700	–
O=C(c1ccc2ccccc2c1)N1CCC(N2C(=O)CCc3ccccc32)CC1 [Example 116, 1-[1-(2-Naphthylcarbonyl)-4-piperidinyl]-3,4-dihydrocarbostyril]	760	–
O=C(c1cnc2ccccc2c1)N1CCC(N2C(=O)CCc3ccccc32)CC1 [Example 117, 1-[1-(3-quinolylcarbonyl)-4-piperidinyl]-3,4-dihydrocarbostyril]	1500	–
COc1ccc(C(=O)N2CCC(N3C(=O)CCc4ccccc43)C(C)C2)c(OC)c1 (stereo not shown) [Example 118, 1-[3-Methyl-1-(2,4-dimethoxycarbonyl)-4-piperidinyl]-3,4-dihydrocarbostyril]	–	IC50 ([H]3-Arg-vasopressin 2×10^-10 M, rat liver plasma membrane, 37° C., 10 minutes, pH 8.0): 260 nM
COc1ccc(C(=O)N2CCC(N3C(=O)CCc4ccccc43)CC2)cc1[N+](=O)[O-] [Example 119, 1-[1-(3-Nitro-4-methoxybenzoyl)-4-piperidinyl]-3,4-dihydrocarbostyril]	1400	–
CCOc1ccc(C(=O)N2CCC(N3C(=O)CCc4cc(F)c(F)cc43)CC2)c(OC)c1 [Example 120, 6,7-Difluoro-1-[1-(2-methoxy-4-ethoxybenzoyl)-4-piperidinyl]-3,4-dihydrocarbostyril]	200	–
CNC(=O)CCCOc1ccc(C(=O)N2CCC(N3C(=O)CCc4ccccc43)CC2)cc1 [Example 121, 1-{1-[4-(3-Methylaminocarbonylpropoxy)benzoyl]-4-piperidinyl}-3,4-dihydrocarbostyril]	460	–
O=C(c1ccc(C=CCCO)cc1)N1CCC(N2C(=O)CCc3ccccc32)CC1 [Example 122, 1-{1-[4-(4-Hydroxy-1-butenyl)benzoyl]-4-piperidinyl}-3,4-dihydrocarbostyril]	710	–
O=C(c1ccc(CCCCO)cc1)N1CCC(N2C(=O)CCc3ccccc32)CC1 [Example 123, 1-{1-[4-(4-Hydroxybutyl)benzoyl]-4-piperidinyl}-3,4-dihydrocarbostyril]	350	–
